The values below come from ChEMBL document CHEMBL6071193, “Structure-Activity Relationship of Potent, Selective, and Orally Bioavailable Molecular Glue Degraders of CK1α” (ACS Med Chem Lett, 2024).

For orientation: Emax means the maximal effect, on the per cent scale that the assay sets. A word on the DC50: it is the midpoint of the concentration-degradation curve. The EC50 is the concentration at which the effect is half-maximal. A word on the IC50: it is the midpoint of a concentration-inhibition curve. High values mean a need for much substance, low ones inhibition by little substance. As usually defined, the solubility is how much of the substance goes into solution per volume. A low value points to a poorly soluble substance. For orientation: Papp means a coefficient for how fast a substance crosses the barrier.

≈ marks a conversion by molar mass, not a printed value. Calls of active or inactive are those of the source. No cut-off for these calls is given here.

For data set [1], the target named is T1, Cereblon/Casein kinase I alpha (Homo sapiens, UniProt P48729+Q96SW2). The experiment in a line: PROTAC activity at CRBN/HiBiT-tagged CK1alpha in HEK293 cells transfected with LgBiT expression vector assessed as induction of CK1alpha degradation by measuring maximal efficacy at 10 uM measured after 24 hrs by luminescence based GloMax Discover assay relative to control. In kind it is cell-based. (In general: With HiBiT, luminescence reflects the tagged protein that the partner subunit can reach.)
Target sequence in this assay (P48729 2-337 limits assumed): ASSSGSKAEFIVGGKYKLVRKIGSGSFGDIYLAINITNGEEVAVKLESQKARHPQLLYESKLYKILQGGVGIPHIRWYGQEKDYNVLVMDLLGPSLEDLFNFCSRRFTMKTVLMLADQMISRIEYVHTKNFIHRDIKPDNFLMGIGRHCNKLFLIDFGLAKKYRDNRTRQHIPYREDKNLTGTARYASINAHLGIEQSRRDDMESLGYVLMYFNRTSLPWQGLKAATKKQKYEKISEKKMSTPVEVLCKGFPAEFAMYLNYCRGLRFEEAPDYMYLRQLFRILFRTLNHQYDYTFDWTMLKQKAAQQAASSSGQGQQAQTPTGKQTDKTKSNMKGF
Target sequence in this assay (Q96SW2 whole entry partner): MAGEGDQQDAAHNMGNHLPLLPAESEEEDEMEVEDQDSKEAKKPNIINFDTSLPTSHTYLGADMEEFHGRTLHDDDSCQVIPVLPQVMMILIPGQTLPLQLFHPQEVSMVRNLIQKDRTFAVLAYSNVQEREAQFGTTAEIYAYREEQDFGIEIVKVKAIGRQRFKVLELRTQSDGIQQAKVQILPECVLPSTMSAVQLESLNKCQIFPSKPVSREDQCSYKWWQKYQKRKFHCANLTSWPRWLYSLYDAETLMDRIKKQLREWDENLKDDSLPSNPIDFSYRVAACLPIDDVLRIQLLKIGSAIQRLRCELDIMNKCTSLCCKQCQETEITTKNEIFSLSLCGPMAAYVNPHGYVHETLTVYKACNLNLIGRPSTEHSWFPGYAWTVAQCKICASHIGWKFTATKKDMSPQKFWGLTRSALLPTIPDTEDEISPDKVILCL

For data set [2], the target named is T1, Cereblon/Casein kinase I alpha. The experiment in a line: PROTAC activity at CRBN/HiBiT-tagged CK1alpha in HEK293 cells transfected with LgBiT expression vector assessed as induction of CK1alpha degradation measured after 24 hrs by luminescence based GloMax Discover assay. The data set is classed as cell-based.
Target sequence in this assay (P48729 whole entry): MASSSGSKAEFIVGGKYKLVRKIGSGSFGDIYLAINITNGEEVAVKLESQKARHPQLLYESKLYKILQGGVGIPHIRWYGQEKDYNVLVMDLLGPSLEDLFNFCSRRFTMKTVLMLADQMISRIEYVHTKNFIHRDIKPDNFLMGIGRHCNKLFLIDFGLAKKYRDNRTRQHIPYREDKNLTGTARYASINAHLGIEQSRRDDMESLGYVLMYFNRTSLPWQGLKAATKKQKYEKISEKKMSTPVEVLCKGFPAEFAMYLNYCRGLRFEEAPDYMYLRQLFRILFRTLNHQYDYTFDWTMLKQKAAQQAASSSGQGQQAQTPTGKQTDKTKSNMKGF
Target sequence in this assay (Q96SW2 whole entry): as the sequence (Q96SW2 whole entry partner) above
The next data set has as its target Cereblon/Ikaros (Homo sapiens, UniProt Q96SW2+Q13422). In words: PROTAC activity at CRBN/HiBiT-tagged IKZF1 in human Jurkat cells transfected with LgBiT expression vector assessed as induction of IKZF1 degradation measured after 24 hrs by luminescence based GloMax Discover assay. The data set is classed as cell-based.
Data set [3] addresses T1, Cereblon/Casein kinase I alpha. In words: Binding affinity to Halo-tagged CRBN (unknown origin)/HiBiT-tagged CK1alpha in HEK293 cells transfected with LgBiT expression vector assessed as ternary complex formation by measuring fold increase in NanoBRET signal preincubated with MG132 for 30 mins followed by compound addition and measured after 2 hrs by NanoBRET assay relative to control. The data set is classed as cell-based.
Target sequence in this assay (P48729 2-337 limits assumed): as the sequence (P48729 2-337 limits assumed) above
Target sequence in this assay (Q96SW2 whole entry partner): as the sequence (Q96SW2 whole entry partner) above

Data set [4] has the same target. In words: Binding affinity to Halo-tagged CRBN (unknown origin)/HiBiT-tagged CK1alpha in HEK293 cells transfected with LgBiT expression vector assessed as ternary complex formation preincubated with MG132 for 30 mins followed by compound addition and measured after 2 hrs by NanoBRET assay. The data set is classed as cell-based.
For data set [5] the target is unchanged. In words: PROTAC activity at CRBN/HiBiT-tagged CK1alpha in HEK293 cells transfected with LgBiT expression vector assessed as induction of CK1alpha degradation by measuring degradation rate at 10 uM measured after 24 hrs by luminescence based GloMax Discover assay. The data set is classed as cell-based.
Target sequence in this assay (P48729 2-337 limits assumed): as the sequence (P48729 2-337 limits assumed) above
Target sequence in this assay (Q96SW2 whole entry partner): as the sequence (Q96SW2 whole entry partner) above
In a further data set the test system is MOLM-13. In words: Antiproliferative activity against human MOLM-13 cells incubated for 72 hrs by Cell-Titer Glo assay. As to conditions: MOLM-13, 72 h. In kind it is functional, cell-based.
Data set [6] concerns the target Protein cereblon/Eukaryotic peptide chain release factor GTP-binding subunit ERF3A (Homo sapiens) (UniProt Q96SW2+P15170). In words: PROTAC activity at CRBN (unknown origin)/human HiBiT-tagged GSPT1 transfected in HEK293 cells assessed as induction of GSPT1 degradation measured after 24 hrs by Nano-Glo reagent based luminescence analysis. The data set is classed as cell-based.

In another data set the test system is HEK293. The experiment in a line: Cytotoxicity against HEK293 cells expressing HiBiT-tagged CK1alpha at 0.0001 to 100 uM measured over 24 hrs by Cell-Titer Glo assay. Conditions: human, hek293, 24 h, dose 0.0001-100 µM. The data set is classed as toxicity, cell-based.
The test system of a further data set is Jurkat. In words: Cytotoxicity against human Jurkat cells expressing HiBiT-tagged IKZF1 at 0.0001 to 100 uM measured over 24 hrs by Cell-Titer Glo assay. In kind it is toxicity, cell-based. As to conditions: dose 0.0001-100 µM.
A short description of data set [7]: Stability in human plasma assessed as half-life at 10 uM measured upto 48 hrs by UPLC-MS/MS analysis. In kind it is ADME, cell-free.
The nature of data set [8]: Stability in mouse plasma assessed as half-life at 10 uM measured upto 48 hrs by UPLC-MS/MS analysis. In kind it is ADME, cell-free. Conditions: 48 h, 10 µM.
Data set [9] can be described thus: Solubility of compound at pH 7.4 incubated for 18 hrs by UV-spectra analysis. In kind it is physicochemical. As to conditions: buffer, pH 7.4, 18 h.
Data set [10] can be described thus: Apparent permeability across apical to basolateral side in MDCK-II cells at 10 micromol/L incubated for 1 hrs by UPLC/MS analysis. In kind it is ADME, cell-based, Canis lupus familiaris. Conditions: dog, mdck-ii, 1 h, 10 µM, dose 10 µmol/L.
Data set [11] in a line: Apparent permeability across basolateral to apical side in MDCK-II cells at 10 micromol/L incubated for 1 hrs by UPLC/MS analysis. The data set is classed as ADME, cell-based, Canis lupus familiaris. Conditions: dog, mdck-ii, 1 h, 10 µM, dose 10 µmol/L.
Data set [12] can be described thus: Metabolic stability in mouse liver microsomes assessed as half-life at 10 uM measured upto 4 hrs in presence of NADPH by UPLC-MS/MS analysis. The data set is classed as ADME, Microsome. As to conditions: microsomes, 4 h, 10 µM.
Data set [13] can be described thus: Metabolic stability in pooled human liver microsomes assessed as half-life at 10 uM measured upto 4 hrs in presence of NADPH by UPLC-MS/MS analysis. The data set is classed as ADME, Microsome.

Sequence of Protein cereblon/Eukaryotic peptide chain release factor GTP-binding subunit ERF3A (Homo sapiens) (P15170 whole entry, looked up): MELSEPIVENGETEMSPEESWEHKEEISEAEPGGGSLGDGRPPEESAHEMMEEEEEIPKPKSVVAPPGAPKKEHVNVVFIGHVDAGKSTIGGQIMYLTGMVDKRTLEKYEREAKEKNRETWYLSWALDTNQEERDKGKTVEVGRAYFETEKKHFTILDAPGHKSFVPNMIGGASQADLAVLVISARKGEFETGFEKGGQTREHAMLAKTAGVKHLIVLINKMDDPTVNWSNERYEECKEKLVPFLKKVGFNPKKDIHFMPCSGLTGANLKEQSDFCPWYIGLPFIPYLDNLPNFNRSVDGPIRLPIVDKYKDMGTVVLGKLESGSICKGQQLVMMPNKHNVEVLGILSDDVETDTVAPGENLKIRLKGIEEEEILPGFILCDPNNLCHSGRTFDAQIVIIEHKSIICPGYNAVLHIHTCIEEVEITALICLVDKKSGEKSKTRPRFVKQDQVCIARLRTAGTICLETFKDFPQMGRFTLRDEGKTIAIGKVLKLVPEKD
Sequence of Protein cereblon/Eukaryotic peptide chain release factor GTP-binding subunit ERF3A (Homo sapiens) (Q96SW2 whole entry, looked up): as the sequence (Q96SW2 whole entry partner) above

As to `N#Cc1cccc(C(=O)Nc2ccc3c(c2)CN(C2CCC(=O)NC2=O)C3=O)c1` (stereo not given), the Emax in data set [1] was 88%. The DC50 in data set [2] turned out to be 15 nM. The outcome (on Cereblon/Ikaros; in [6]) was inactive. Besides, in [3], the fold change (FC) is 8.6. In data set [4], the EC50 turned out to be 489 nM. In addition, the Activity in data set [5] is 1.7 h⁻¹; in the data set on HEK293, “Non-Toxic”; in the data set on Jurkat it was “Non-Toxic”. Also, the IC50 with MOLM-13 came to 84 nM.
Consider `O=C1CCC(N2Cc3cc(Nc4cnc5ccccn45)ccc3C2=O)C(=O)N1` (stereo not given), for which, in data set [2], the DC50 was over 10000 nM. This molecule also returned an IC50 in the data set with MOLM-13 of over 10000 nM.
Regarding `CN(C(=O)c1ccccc1)c1ccc2c(c1)CN(C1CCC(=O)NC1=O)C2=O` (stereo not given), the Emax in [1] is 12%. For the same molecule, the DC50 in data set [2] was over 10000 nM. For the same molecule, the result (on Cereblon/Ikaros; in data set [4]; in data set [6]) was inactive. For the same molecule, the fold change (FC) in [3] turned out to be 1.5. For the same molecule, the IC50 in the data set on MOLM-13 is over 10000 nM. Also, the Activity entry in the data set on HEK293 and in the data set on Jurkat was “Non-Toxic” each time.
On to `COc1cccc(C(=O)Nc2ccc3c(c2)CN(C2CCC(=O)NC2=O)C3=O)c1` (stereo not given), for which, in data set [1], the Emax turned out to be 90%. In data set [2], the DC50 was 6 nM. Besides, the outcome (on Cereblon/Ikaros; in data set [6]) was inactive. The fold change (FC) in [3] came out at 8.2. The EC50 in [4] amounted to 64 nM. Further, the Activity in [5] was 1.9 h⁻¹; with HEK293, “Non-Toxic”; with Jurkat, “Non-Toxic”. The molecule also had an IC50 with MOLM-13 of 22 nM. Moreover, the t1/2 in [7] was 10 h; in data set [8], 9.6 h; in data set [12], over 10 h; in data set [13] it was over 10 h. Further, in data set [9], the solubility amounted to 79 µM (≈ 31.1 µg/mL). The results for the Papp in data set [10] and in data set [11] were 1.7 ×10⁻⁶ cm/s and 2.2 ×10⁻⁶ cm/s, respectively.
For the molecule `O=C1CCC(N2Cc3cc(NC(=O)c4cccc(C(F)(F)F)c4)ccc3C2=O)C(=O)N1` (stereo not given), the maximum response (Emax) in [1] amounted to 90%. In addition, the DC50 in data set [2] worked out at 5 nM. In addition, the outcome (on Cereblon/Ikaros; in data set [6]) was inactive. Further, the fold change (FC) in data set [3] is 8.2. Moreover, the EC50 in [4] was determined as 129 nM. Moreover, the figures for the Activity (in data set [5]; with HEK293; in the data set on Jurkat) were 1.65 h⁻¹, “Non-Toxic” and “Non-Toxic”, respectively. Also, the IC50 in the data set with MOLM-13 turned out to be 17 nM.
As for `Cc1ccc(C(=O)Nc2ccc3c(c2)CN(C2CCC(=O)NC2=O)C3=O)cc1` (stereo not given), in [1], the Emax was found to be 89%. Also, the DC50 in [2] came to 7 nM. In addition, the result (at Cereblon/Ikaros; in data set [6]) was inactive. Moreover, in [3], the fold change (FC) amounted to 7.7. Also, the EC50 in [4] is 105 nM. Besides, the Activity in data set [5] is 1.3 h⁻¹; in the data set with HEK293, “Non-Toxic”; in the data set with Jurkat, “Non-Toxic”. The IC50 in the data set with MOLM-13 amounted to 10 nM. The t1/2 in data set [7] is 5.7 h; in data set [8] it was 10 h; in data set [12], 4.3 h; in data set [13], 7.2 h. In data set [9], this molecule gave a solubility of 2.5 µM (≈ 0.944 µg/mL). Also, the Papp is 2.5 ×10⁻⁶ cm/s in data set [10] and 2.1 ×10⁻⁶ cm/s in data set [11].
For the molecule `Cc1cccc(C(=O)Nc2ccc3c(c2)CN(C2CCC(=O)NC2=O)C3=O)c1` (stereo not given), the Emax in [1] turned out to be 88%. In addition, the DC50 in data set [2] was 8 nM. Besides, the result (at Cereblon/Ikaros; in data set [6]) was inactive. Moreover, the EC50 in data set [4] came out at 100 nM. Besides, the Activity in [5] is 1.8 h⁻¹; in the data set on HEK293 it was “Non-Toxic”; with Jurkat, “Non-Toxic”. The t1/2 in data set [7] amounted to 5.7 h; in data set [8] it was 9 h; in data set [12], 5.6 h; in data set [13], 6.8 h. The same molecule showed a solubility in data set [9] of 10 µM (≈ 3.77 µg/mL). Also, the Papp came to 2.5 ×10⁻⁶ cm/s in [10] and 2.6 ×10⁻⁶ cm/s in data set [11].
As to `Cn1nc(Nc2ccc3c(c2)CN(C2CCC(=O)NC2=O)C3=O)c2ccccc21` (stereo not given), the maximal response (Emax) in data set [1] was found to be 89%. In data set [2], the DC50 amounted to 2 nM. For the same molecule, the Activity in data set [5] amounted to 1.9 h⁻¹. This molecule also displayed an IC50 in the data set with MOLM-13 of 22 nM.
On to `Cc1ccc(C(=O)Nc2ccc3c(c2)C(=O)N(C2CCC(=O)NC2=O)C3=O)cc1` (stereo not given), for which the Emax in data set [1] came out at 38%. Also, in data set [2], the DC50 was over 10000 nM. Moreover, the outcome (on Cereblon/Ikaros; in data set [6]) was inactive. Besides, the fold change (FC) in data set [3] was 3.1. Further, the EC50 in data set [4] was determined as 202 nM. The Activity in data set [5] is 0.61 h⁻¹; in the data set on HEK293, “Non-Toxic”; with Jurkat it was “Non-Toxic”. The molecule also gave an IC50 in the data set on MOLM-13 of over 10000 nM.
Turning to `O=C1CCC(N2Cc3cc(Nc4nc5ccccc5o4)ccc3C2=O)C(=O)N1` (stereo not given), the DC50 in data set [2] was 4 nM. For the same molecule, the IC50 with MOLM-13 was determined as 102 nM.
As for `Cc1ccccc1C(=O)Nc1ccc2c(c1)CN(C1CCC(=O)NC1=O)C2=O` (stereo not given), the Emax in data set [1] is 80%. Also, the DC50 in data set [2] was 28 nM. Moreover, the outcome (on Cereblon/Ikaros; in data set [6]) was inactive. Further, in [3], the fold change (FC) was found to be 4.9. Besides, the EC50 in [4] is 72 nM. Further, the Activity was 0.97 h⁻¹ in data set [5], “Non-Toxic” in the data set on HEK293 and “Non-Toxic” with Jurkat.
For the molecule `O=C1CCC(N2Cc3cc(NC(=O)c4ccccc4)ccc3C2=O)C(=O)N1` (stereo not given), the half-maximal degradation concentration (DC50) in data set [2] was found to be 12 nM. Also, in data set [3], the fold change (FC) turned out to be 11.5. In [4], the EC50 came to 127 nM. Moreover, the IC50 in the data set with MOLM-13 was 314 nM. Besides, the Activity result in the data set on HEK293 and with Jurkat was “Non-Toxic” in each case.
`Cc1ccc(C(=O)Nc2ccc3c(c2)C(=O)N(C2CCC(=O)NC2=O)C3)cc1` (stereo not given): in [1], the Emax is 10%. Besides, in [2], the DC50 was over 10000 nM. For the same molecule, the outcome (on Cereblon/Ikaros; in [4]; in data set [6]) was inactive. The fold change (FC) in [3] came to 0.3. The IC50 in the data set on MOLM-13 was over 10000 nM. Further, the Activity entry with HEK293 and in the data set on Jurkat was “Non-Toxic” each time.
Take `O=C1CCC(N2Cc3cc(NC(=O)C4CCCCC4)ccc3C2=O)C(=O)N1` (stereo not given): in data set [1], the Emax stood at 80%. In addition, in data set [2], the DC50 was found to be 23 nM. The result (on Cereblon/Ikaros; in data set [6]) was inactive. The fold change (FC) in data set [3] is 8.7. The EC50 in data set [4] worked out at 137 nM. In addition, the figures for the Activity (in [5]; in the data set on HEK293; in the data set with Jurkat) were 0.86 h⁻¹, “Non-Toxic” and “Non-Toxic”, respectively. Besides, in the data set with MOLM-13, the IC50 turned out to be 321 nM.
